Measurements taken from patent publication US11299487B2, “Compounds and compositions as modulators of TLR signaling” (Neuropore Therapies, Inc., priority 2019, dated 2022).

How the values were obtained:
human TLR2 [1] = target: T1, human TLR2 (Homo sapiens, UniProt O60603); assay: HEK-Blue hTLR2 antagonism assay (SEAP reporter) with agonist Pam2CSK4 (TLR2/6 agonist); format: cell-based; details: HEK-Blue hTLR2 cells, ~3×EC50 Pam2CSK4, 18 h, SEAP OD 655 nm, 8-point dilutions
T1 construct: host or cells: HEK-Blue hTLR2 (HEK-293)
T1 sequence (O60603 21-784): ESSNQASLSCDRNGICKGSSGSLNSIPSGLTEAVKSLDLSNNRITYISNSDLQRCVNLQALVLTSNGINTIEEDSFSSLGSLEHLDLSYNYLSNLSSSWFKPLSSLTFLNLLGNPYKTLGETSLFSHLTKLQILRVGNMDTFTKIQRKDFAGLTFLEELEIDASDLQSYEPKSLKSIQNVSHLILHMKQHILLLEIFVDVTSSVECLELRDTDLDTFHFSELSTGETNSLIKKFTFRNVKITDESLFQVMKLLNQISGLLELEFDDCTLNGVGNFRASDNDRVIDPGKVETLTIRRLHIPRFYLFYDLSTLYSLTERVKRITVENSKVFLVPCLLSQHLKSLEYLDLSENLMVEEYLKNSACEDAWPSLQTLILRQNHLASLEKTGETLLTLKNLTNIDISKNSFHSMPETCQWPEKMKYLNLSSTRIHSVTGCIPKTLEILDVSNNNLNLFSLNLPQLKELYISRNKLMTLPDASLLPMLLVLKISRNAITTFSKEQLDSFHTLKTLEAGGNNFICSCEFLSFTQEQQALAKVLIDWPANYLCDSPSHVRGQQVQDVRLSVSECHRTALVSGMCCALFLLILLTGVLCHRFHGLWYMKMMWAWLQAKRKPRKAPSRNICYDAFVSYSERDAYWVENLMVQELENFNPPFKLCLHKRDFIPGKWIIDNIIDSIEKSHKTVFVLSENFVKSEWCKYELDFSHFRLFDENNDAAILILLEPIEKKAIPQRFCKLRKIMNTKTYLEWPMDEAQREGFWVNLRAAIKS
Method: (§1) Synthetic diacylated lipoprotein (Pam2CSK4, TLR2/6 agonist) and synthetic triacylated lipoprotein (Pam3CSK4, TLR1/2 agonist) were obtained from InvivoGen and were dissolved in endotoxin-free water to a concentration 1 mg/mL, vortexed until complete solubilization, and stored in aliquots at −20° C. Prior to addition to cells, an aliquot of the dissolved ligand was vortexed shortly and then was diluted in medium to 25 ng/mL Pam2CSK4 or 1000 ng/mL Pam3CSK4.
(§2) Test compounds were solubilized fresh to 10-20 mM stocks in DMSO and sonicated for 5-10 minutes in a water bath sonicator. Serial dilutions were prepared in DMSO, and then diluted in medium. The final concentration of DMSO used in the assay was 1%.
(§3) HEK-Blue hTLR2 reporter cells (InvivoGen) are HEK-293 cells stably expressing both the human TLR2 gene and a secreted embryonic alkaline phosphatase (SEAP) reporter construct downstream of NFκB promotor sites. HEK-Blue hTLR2 reporters were cultured according to manufacturer's protocol using Dulbecco's Modified Eagle Medium (DMEM; Gibco) containing 1× GlutaMax (Gibco), 10% heat-inactivated Fetal Bovine Serum (Gibco), Pen-Strep (50 U/mL penicillin, 50 μg/mL streptomycin, Gibco), 100 μg/mL Normocin (InvivoGen), and the selective antibiotic, 1×HEK-Blue Selection (InvivoGen). Quanti-Blue reagent (InvivoGen) for detection and quantification of secreted alkaline phosphatase was dissolved in 100 mL of endotoxin-free water, warmed to 37° C. for 30 minutes and then filtered using a 0.2 μm membrane.
(§4) On day 1, 50 μL of each test compound dilution in duplicates or a vehicle control was added to each well of a 96-well plate followed by addition of 150 μL of HEK-Blue hTLR2 cell suspension (1×10^5 cells/well) and incubated at 37° C./5% CO2 for 2 h. Next, 50 μL of an approximate 3×EC50 concentration of each agonist (Pam2CSK4 or Pam3CSK4) was added to the wells containing test compounds or the vehicle control. The plates were then incubated at 37° C./5% CO2 for 18 h. For each assay run, non-treated HEK-Blue hTLR2 cells were treated with serial dilutions of agonists to determine EC50 values for the respective run.
(§5) On day 2, secreted alkaline phosphatase (SEAP) activity was detected in cell culture supernatants. In brief, 20 μL was collected from each well and transferred to a 96-well plate. Next, 200 μL of Quanti-Blue detection reagent was added to each well. Plates were incubated at room temperature for 15 min. and SEAP activity was assessed by spectrophotometer OD reading at 655 nm. […] IC50 values were calculated based on 8-point dilutions for each compound.

human TLR2 [2] = target: T1, human TLR2; assay: HEK-Blue hTLR2 antagonism assay (SEAP reporter) with agonist Pam3CSK4 (TLR1/2 agonist); format: cell-based; details: HEK-Blue hTLR2 cells, ~3×EC50 Pam3CSK4, 18 h, SEAP OD 655 nm, 8-point dilutions
Method: as §1, §2, §3, §4, §5

| SMILES | IC50 (human TLR2 [1]; Table B) | IC50 (human TLR2 [2]; Table B) | IC50 (human TLR2 [1]; Table A) | IC50 (human TLR2 [2]; Table A) |
| --- | --- | --- | --- | --- |
| CC1(C)CCN(c2ccc(-c3csc(-c4cc(F)c(O)c(C=O)c4)n3)cc2)C1 [Compound A105, 5-(4-(4-(3,3-dimethylpyrrolidin-1-yl)phenyl)thiazol-2-yl)-3-fluoro-2-hydroxybenzaldehyde] |  |  | 1.9 µM | 0.5 µM |
| O=Cc1cc(-c2cnn(-c3ccc(N4CCOCC4)cc3)c2)cc(F)c1O [Compound A21, 3-fluoro-2-hydroxy-5-(1-(4-morpholinophenyl)-1H-pyrazol-4-yl)benzaldehyde] |  |  | 2.6 µM | 1.1 µM |
| Oc1c(F)cc(-c2cnn(-c3ccc(N4CCCC4)cc3)c2)cc1/C=N/c1ccccc1 [Compound A39, (E)-2-fluoro-6-((phenylimino)methyl)-4-(1-(4-(pyrrolidin-1-yl)phenyl)-1H-pyrazol-4-yl)phenol] |  |  | 0.5 µM | 0.5 µM |
| Oc1c(F)cc(-c2cnn(-c3ccc(N4CCCC4)cc3)c2)cc1/C=N/N1CCN(C2CC2)CC1 [Compound A36, (E)-2-(((4-cyclopropylpiperazin-1-yl)imino)methyl)-6-fluoro-4-(1-(4-(pyrrolidin-1-yl)phenyl)-1H-pyrazol-4-yl)phenol] |  |  | > 100 µM | > 100 µM |
| O=Cc1cc(-c2cnn(-c3ccc(N4CCCCC4)cc3)c2)cc(F)c1O [Compound A20, 3-fluoro-2-hydroxy-5-(1-(4-(piperidin-1-yl)phenyl)-1H-pyrazol-4-yl)benzaldehyde] |  |  | 0.5 µM | 0.2 µM |
| O=Cc1cc(-c2cnc(-c3cnc(N4CCCC4)c(C(F)(F)F)c3)s2)cc(F)c1O [Compound A114, 3-fluoro-2-hydroxy-5-(2-(6-(pyrrolidin-1-yl)-5-(trifluoromethyl)pyridin-3-yl)thiazol-5-yl)benzaldehyde] |  |  | 0.7 µM | 0.4 µM |
| O=Cc1cc(-c2ccn(-c3ccc(N4CCCCC4)cc3)n2)cc(F)c1O [Compound A28, 3-fluoro-2-hydroxy-5-(1-(4-(piperidin-1-yl)phenyl)-1H-pyrazol-3-yl)benzaldehyde] |  |  | 0.9 µM | 0.8 µM |
| O=Cc1cc(-c2cnn(-c3cccc(N4CCOCC4)c3)c2)cc(F)c1O [Compound A24, 3-fluoro-2-hydroxy-5-(1-(3-morpholinophenyl)-1H-pyrazol-4-yl)benzaldehyde] |  |  | 4.3 µM | 5.4 µM |
| O=Cc1cc(-c2ccn(-c3cccc(N4CCOCC4)c3)n2)cc(F)c1O [Compound A32, 3-fluoro-2-hydroxy-5-(1-(3-morpholinophenyl)-1H-pyrazol-3-yl)benzaldehyde] |  |  | 12.7 µM | 17.4 µM |
| Cc1cc(-c2cnn(-c3ccccc3)c2)cc(Cl)c1O [Compound A17, 2-chloro-6-methyl-4-(1-phenyl-1H-pyrazol-4-yl)phenol] |  |  | 52.6 µM | 43.4 µM |
| O=Cc1cc(-c2nc(-c3ccccc3)co2)cc(F)c1O [Compound A90, 3-fluoro-2-hydroxy-5-(4-phenyloxazol-2-yl)benzaldehyde] |  |  | 6.5 µM | 4.5 µM |
| COc1cc(-c2cnn(-c3cccc(C(F)(F)F)c3)c2)cc(C=O)c1O [Compound A9, 2-hydroxy-3-methoxy-5-(1-(3-(trifluoromethyl)phenyl)-1H-pyrazol-4-yl)benzaldehyde] |  |  | 3.8 µM | 5.1 µM |
| O=Cc1cc(-c2cnc(-c3ccccc3)s2)ncc1O [Compound A99, 5-hydroxy-2-(2-phenylthiazol-5-yl)isonicotinaldehyde] |  |  | 3.3 µM | 2.2 µM |
| CC(=O)N/N=C/c1cc(-c2cnn(-c3ccc(N4CCCC4)cc3)c2)cc(F)c1O [Compound A38, N′-(3-fluoro-2-hydroxy-5-(1-(4-(pyrrolidin-1-yl)phenyl)-1H-pyrazol-4-yl)benzylidene)acetohydrazide] |  |  | 0.4 µM | 0.4 µM |
| COc1cc(-c2cnn(Cc3ccccc3)c2)cc(C=O)c1O [Compound A4, 5-(1-benzyl-1H-pyrazol-4-yl)-2-hydroxy-3-methoxybenzaldehyde] |  |  | 8.5 µM | 10.5 µM |
| COc1cc(-c2cnn(-c3ccc(F)cc3)c2)cc(C=O)c1O [Compound A6, 5-(1-(4-fluorophenyl)-1H-pyrazol-4-yl)-2-hydroxy-3-methoxybenzaldehyde] |  |  | 14.1 µM | 12 µM |
| O=Cc1cc(-c2cnc(-c3ccc(N4CCCC4)cc3)s2)ncc1O [Compound A112, 5-hydroxy-2-(2-(4-(pyrrolidin-1-yl)phenyl)thiazol-5-yl)isonicotinaldehyde] |  |  | 0.3 µM | 0.2 µM |
| CN1CCN(/N=C/c2cc(-c3cnn(-c4ccc(N5CCCC5)cc4)c3)cc(F)c2O)CC1 [Compound A35, (E)-2-fluoro-6-(((4-methylpiperazin-1-yl)imino)methyl)-4-(1-(4-(pyrrolidin-1-yl)phenyl)-1H-pyrazol-4-yl)phenol] |  |  | 1.6 µM | 0.7 µM |

Continued, values first:

| IC50 (human TLR2 [1]; Table B) | IC50 (human TLR2 [2]; Table B) | IC50 (human TLR2 [1]; Table A) | IC50 (human TLR2 [2]; Table A) | SMILES |
| --- | --- | --- | --- | --- |
| 1 µM | 0.5 µM |  |  | O=Cc1cc(C(=O)Nc2ccc(N3Cc4ccccc4C3)cc2)cc(F)c1O [Compound B81, 3-fluoro-5-formyl-4-hydroxy-N-(4-(isoindolin-2-yl)phenyl)benzamide] |
| 33.9 µM | 14.3 µM |  |  | O=Cc1cc(C(=O)Nc2ccc(N3CCC(N4CCCC4)CC3)cc2)cc(F)c1O [Compound B84, 3-fluoro-5-formyl-4-hydroxy-N-(4-(4-(pyrrolidin-1-yl)piperidin-1-yl)phenyl)benzamide] |
| 1.8 µM | 1 µM |  |  | O=Cc1cc(C(=O)Nc2ccc(N3CCCCC3)cc2)cc(F)c1O [Compound B66, 3-fluoro-5-formyl-4-hydroxy-N-(4-(piperidin-1-yl)phenyl)benzamide] |
| 15.5 µM | 35.9 µM |  |  | O=Cc1cc(C#Cc2ccc(C(=O)NC3CC3)cc2)cc(F)c1O [Compound B80, N-cyclopropyl-4-((3-fluoro-5-formyl-4-hydroxyphenyl)ethynyl)benzamide] |
| 1 µM | 0.3 µM |  |  | O=Cc1cc(C(=O)Nc2ccc(N3CCN(c4ccccc4)CC3)cc2)cc(F)c1O [Compound B83, 3-fluoro-5-formyl-4-hydroxy-N-(4-(4-phenylpiperazin-1-yl)phenyl)benzamide] |
| 30.1 µM | 11.3 µM |  |  | Cn1cc(-c2ccc(NC(=O)c3cc(F)c(O)c(C=O)c3)cc2)cn1 [Compound B63, 3-fluoro-5-formyl-4-hydroxy-N-(4-(1-methyl-1H-pyrazol-4-yl)phenyl)benzamide] |
| 2.9 µM | 1.9 µM |  |  | O=Cc1cc(C(=O)Nc2ccc(N3CCOc4ccccc43)cc2)cc(F)c1O [Compound B90, N-(4-(2,3-dihydro-4H-benzo[b][1,4]oxazin-4-yl)phenyl)-3-fluoro-5-formyl-4-hydroxybenzamide] |
| 3.8 µM | 1.8 µM |  |  | O=Cc1c(O)cc(C#Cc2ccc(N3CCOCC3)cc2)cc1F [Compound B6, 2-fluoro-6-hydroxy-4-((4-morpholinophenyl)ethynyl)benzaldehyde] |
| 1.2 µM | 0.7 µM |  |  | O=Cc1cc(C(=O)Nc2ccc(N3CCc4ccccc4C3)cc2)cc(F)c1O [Compound B82, N-(4-(3,4-dihydroisoquinolin-2(1H)-yl)phenyl)-3-fluoro-5-formyl-4-hydroxybenzamide] |
| 1.9 µM | 1.9 µM |  |  | O=Cc1cc(C(=O)Nc2ccc(C(F)(F)F)cc2)cc(F)c1O [Compound B13, 3-fluoro-5-formyl-4-hydroxy-N-(4-(trifluoromethyl)phenyl)benzamide] |
